Results taken from patent US9302999B2, “Substituted triazoles as herbicides” (E. I. DU PONT DE NEMOURS AND COMPANY, priority 2012, dated 2016).
Like-named read-outs stand apart in the source and are kept apart here.

Experiments:
Assay type in all cases: in vivo
[1] = tested on: sedge, umbrella (small-flower umbrella sedge, Cyperus difformis); assay: Test C flooded paddy test: sedge, umbrella; conditions: Cyperus difformis, scale 0 to 100 (0 no effect, 100 complete control), read-out: Plant response rating, Sedge, Umbrella; for pest or weed control at 62 g/ha: 62 g ai/ha; for pest or weed control at 250 g/ha: 250 g ai/ha; for pest or weed control at 125 g/ha: 125 g ai/ha
Summary of the method: (§1)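 Plants were grown to the 2-leaf stage, pots flooded to 3 cm above soil, and test compounds applied directly to the paddy water, with that depth held throughout. After 13 to 15 days in a greenhouse, injury was visually rated against controls on a 0 (no effect) to 100 (complete control) scale.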

[2] = tested on: barnyardgrass (Echinochloa crus-galli); assay: Test C flooded paddy test: barnyardgrass; conditions: Echinochloa crus-galli, scale 0 to 100 (0 no effect, 100 complete control), read-out: Plant response rating, Barnyardgrass; for pest or weed control at 62 g/ha: 62 g ai/ha; for pest or weed control at 250 g/ha: 250 g ai/ha; for pest or weed control at 125 g/ha: 125 g ai/ha
Summary of the method: as §1

[3] = tested on: windgrass (Apera spica-venti); assay: Test D pre-/postemergence: windgrass
Excerpt: (§2) Seeds of plant species selected from bluegrass (annual bluegrass, Poa annua), blackgrass (Alopecurus myosuroides), canarygrass (Phalaris minor), chickweed (common chickweed, Stellaria media), galium (catchweed bedstraw, Galium aparine), bromegrass, downy (downy bromegrass, Bromus tectorum), field poppy (Papaver rhoeas), field violet (Viola arvensis), foxtail, green (green foxtail, Setaria viridis), deadnettle (henbit deadnettle, Lamium amplexicaule), ryegrass, Italian (Italian ryegrass, Lolium multiflorum), kochia (Kochia scoparia), lambsquarters (Chenopodium album), oilseed rape (Brassica napus), pigweed (Amaranthus retroflexus), Russian thistle (Salsola iberica), chamomile (scentless chamomile, Matricaria inodora), speedwell (bird's-eye speedwell, Veronica persica), barley, spring (spring barley, Hordeum vulgare), wheat, spring (spring wheat, Triticum aestivum), buckwheat, wild (wild buckwheat, Polygonum convolvulus), mustard, wild (wild mustard, Sinapis arvensis), oat, wild (wild oat, Avena fatua), radish, wild (wild radish, Raphanus raphanistrum), windgrass (Apera spica-venti), barley, winter (winter barley, Hordeum vulgare), and wheat, winter (winter wheat, Triticum aestivum) were planted into a silt loam soil and treated preemergence with test chemicals formulated in a non-phytotoxic solvent mixture which included a surfactant. At the same time, these same crop and weed species were planted in pots containing the planting medium comprising spaghnum peat moss, vermiculite, wetting agent and starter nutrients and treated with postemergence applications of the test chemicals formulated in the same manner. Plants ranged in height from 2 to 18 cm (1- to 4-leaf stage).
(§3) Treated plants and controls were maintained in a controlled growth environment for 14 to 21 days after which time all species were compared to controls and visually evaluated. Plant response ratings, summarized in Table D, are based on a scale of 0 to 100 where 0 is no effect and 100 is complete control. A dash (-) response means no test result.

[4] = tested on: bluegrass (annual bluegrass, Poa annua); assay: Test D pre-/postemergence: bluegrass
Excerpt: as §2, §3

[5] = tested on: galium (catchweed bedstraw, Galium aparine); assay: Test D pre-/postemergence: galium; conditions: for Plant response rating, Galium: scale 0 to 100
Excerpt: as §2, §3

[6] = tested on: mustard, wild (wild mustard, Sinapis arvensis); assay: Test D pre-/postemergence: mustard, wild
Excerpt: as §2, §3

[7] = Flood (flooded paddy test), visual rating after 13 to 15 days
[8] = Postemergence, 31 g ai/ha, scale 0 to 100 (0 no effect, 100 complete control)
[9] = Postemergence, 62 g ai/ha, scale 0 to 100 (0 no effect, 100 complete control)
[10] = Postemergence, 125 g ai/ha, scale 0 to 100, 0 no effect, 100 complete control
[11] = Postemergence, 250 g ai/ha, scale 0 to 100 (0 no effect, 100 complete control)
[12] = Preemergence, 31 g ai/ha, scale 0 to 100, 0 no effect, 100 complete control
[13] = Preemergence, 62 g ai/ha, scale 0 to 100
[14] = Preemergence, 125 g ai/ha, scale 0 to 100
[15] = Preemergence, 250 g ai/ha, scale 0 to 100
[16] = Postemergence, 16 g ai/ha, scale 0 to 100
[17] = Postemergence, 31 g ai/ha, scale 0 to 100
[18] = Preemergence, 16 g ai/ha, scale 0 to 100, 0 no effect, 100 complete control

Row | SMILES | pest or weed control at 62 g/ha [1, 7] [%] | pest or weed control at 250 g/ha [1, 7] [%] | pest or weed control at 62 g/ha [2, 7] [%] | pest or weed control at 250 g/ha [2, 7] [%] | Plant response rating: Windgrass [3, 9] | Plant response rating: Windgrass [3, 10] | Plant response rating: Windgrass [3, 11] | Plant response rating, Windgrass [3, 12] | Plant response rating, Windgrass [3, 13] | Plant response rating, Windgrass [3, 14] | Plant response rating: Bluegrass [4, 8] | Plant response rating: Bluegrass [4, 9] | Plant response rating: Bluegrass [4, 10] | Plant response rating: Bluegrass [4, 11] | Plant response rating: Galium [5, 8] | Plant response rating: Galium [5, 9] | Plant response rating: Galium [5, 10] | Plant response rating: Mustard, Wild [6, 8] | Plant response rating: Mustard, Wild [6, 9] | Plant response rating: Mustard, Wild [6, 10] | also measured
1 | Cc1nn(-c2ccc(C(F)(F)F)cc2)nc1Oc1csc(C(F)(F)F)c1 [Compound 1, 4-methyl-2-[4-(trifluoromethyl)phenyl]-5-[[5-(trifluoromethyl)-3-thienyl]oxy]-2H-1,2,3-triazole] | 0 | 0 | 0 | 0 |  |  |  |  |  |  |  |  |  |  |  |  |  |  |  |  | 
2 | FC(F)(F)COc1nn(-c2ccc(C(F)(F)F)cc2)nc1Cc1ccnc(C(F)(F)F)c1 [Compound 14, 4-[[5-(2,2,2-trifluoroethoxy)-2-[4-(trifluoromethyl)phenyl]-2H-1,2,3-triazol-4-yl]methyl]-2-(trifluoromethyl)pyridine] | 40 | 75 | 50 | 70 | 40 | 75 | 100 | 10 | 20 | 40 | 20 | 35 | 70 | 95 | 45 | 55 | 55 | 50 | 90 | 100 | Plant response rating: Windgrass [3, 8]: 30; Plant response rating, Windgrass [3, 15]: 85; Plant response rating, Bluegrass [4, 12]: 0; Plant response rating, Bluegrass [4, 13]: 30; Plant response rating, Bluegrass [4, 14]: 85; Plant response rating, Bluegrass [4, 15]: 100; Plant response rating: Galium [5, 11]: 70; Plant response rating, Galium ([5]; Preemergence, 62 g ai/ha): 0; Plant response rating, Galium ([5]; Preemergence, 125 g ai/ha): 100; Plant response rating, Galium ([5]; Preemergence, 250 g ai/ha): 100; Plant response rating: Mustard, Wild [6, 11]: 100; Plant response rating, Mustard, Wild [6, 12]: 0; Plant response rating, Mustard, Wild [6, 13]: 50; Plant response rating, Mustard, Wild [6, 14]: 90; Plant response rating, Mustard, Wild [6, 15]: 95
3 | COc1nn(-c2ccc(C(F)(F)F)cc2)nc1Cc1ccnc(C(F)(F)F)c1 [Compound 15, 4-[[5-methoxy-2-[4-(trifluoromethyl)phenyl]-2H-1,2,3-triazol-4-yl]methyl]-2-(trifluoromethyl)pyridine] | 75 | 80 | 65 | 75 | 25 | 75 | 100 | 30 | 40 | 100 | 10 | 25 | 50 | 95 | 55 | 70 | 100 | 70 | 100 | 100 | Plant response rating: Windgrass [3, 8]: 10; Plant response rating, Windgrass [3, 16]: 5; Plant response rating, Windgrass [3, 15]: 100; Plant response rating, Bluegrass [4, 16]: 0; Plant response rating, Bluegrass [4, 12]: 0; Plant response rating, Bluegrass [4, 13]: 5; Plant response rating, Bluegrass [4, 14]: 80; Plant response rating, Bluegrass [4, 15]: 100; Plant response rating: Galium [5, 11]: 100; Plant response rating, Galium ([5]; Postemergence, 16 g ai/ha): 50; Plant response rating, Galium ([5]; Preemergence, 62 g ai/ha): 30; Plant response rating, Galium ([5]; Preemergence, 125 g ai/ha): 100; Plant response rating, Galium ([5]; Preemergence, 250 g ai/ha): 100; Plant response rating: Mustard, Wild [6, 11]: 100; Plant response rating, Mustard, Wild [6, 16]: 0; Plant response rating, Mustard, Wild [6, 12]: 100; Plant response rating, Mustard, Wild [6, 13]: 100; Plant response rating, Mustard, Wild [6, 14]: 100; Plant response rating, Mustard, Wild [6, 15]: 100
4 | COCc1nn(-c2ccc(C(F)(F)F)cc2)nc1Oc1cccc(OC(F)(F)F)c1 [Compound 115, 4-(methoxymethyl)-5-[3-(trifluoromethoxy)phenoxy]-2-[4-(trifluoromethyl)phenyl]-2H-1,2,3-triazole] |  | 80 |  | 60 |  |  |  |  |  |  |  |  |  |  |  |  |  |  |  |  | pest or weed control at 125 g/ha [1, 7]: 75%; pest or weed control at 62 g/ha ([1]; Flood): 70%; pest or weed control at 125 g/ha [2, 7]: 45%; pest or weed control at 62 g/ha ([2]; Flood): 40%
5 | FCc1nn(-c2ccc(C(F)(F)F)cc2)nc1Oc1cccc(OC(F)(F)F)c1 [Compound 116, 4-(fluoromethyl)-5-[3-(trifluoromethoxy)phenoxy]-2-[4-(trifluoromethyl)phenyl]-2H-1,2,3-triazole] |  | 85 |  | 60 |  |  |  |  |  |  |  |  |  |  |  |  |  |  |  |  | pest or weed control at 125 g/ha [1, 7]: 75%; pest or weed control at 62 g/ha ([1]; Flood): 60%; pest or weed control at 125 g/ha [2, 7]: 40%; pest or weed control at 62 g/ha ([2]; Flood): 35%
6 | COc1nn(-c2ccc(C(F)(F)F)cc2)nc1Cc1ccnc(C(F)F)c1 [Compound 138] |  |  |  |  | 50 | 60 | 90 |  |  |  | 30 | 50 | 70 | 85 | 75 | 80 | 90 | 90 | 95 | 100 | Plant response rating, Windgrass [3, 16]: 15; Plant response rating, Windgrass [3, 17]: 30; Plant response rating, Bluegrass [4, 16]: 20; Plant response rating: Galium [5, 11]: 100; Plant response rating, Galium ([5]; Postemergence, 16 g ai/ha): 60; Plant response rating: Mustard, Wild [6, 11]: 100; Plant response rating, Mustard, Wild [6, 16]: 75
7 | Cc1nn(-c2ccc(F)c(C(F)(F)F)c2)nc1Cc1ccnc(C(F)(F)F)c1 [Compound 156] |  |  |  |  | 70 | 80 |  | 10 | 85 | 100 | 65 | 70 | 80 |  | 75 | 75 | 80 | 95 | 100 | 100 | Plant response rating, Windgrass [3, 16]: 25; Plant response rating, Windgrass [3, 17]: 50; Plant response rating, Windgrass [3, 18]: 0; Plant response rating, Bluegrass [4, 16]: 15; Plant response rating, Bluegrass [4, 18]: 5; Plant response rating, Bluegrass [4, 12]: 5; Plant response rating, Bluegrass [4, 13]: 40; Plant response rating, Bluegrass [4, 14]: 100; Plant response rating, Galium ([5]; Postemergence, 16 g ai/ha): 70; Plant response rating, Mustard, Wild [6, 16]: 100; Plant response rating, Mustard, Wild [6, 18]: 10; Plant response rating, Mustard, Wild [6, 12]: 85; Plant response rating, Mustard, Wild [6, 13]: 95; Plant response rating, Mustard, Wild [6, 14]: 100
